Source: US20150175599A1, “FAAH Inhibitors” (Ironwood Pharmaceuticals, Inc., priority 2010, published 2015)

experiment: Pharmacokinetic study, plasma level 2 hours after oral dosing in rats; type: in vivo
Procedure, shortened: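 Rats dosed by oral gavage in 1% DMA/99% Vitamin E TPGS; EDTA plasma taken by retro-orbital bleed 2 h post-dose. Acetonitrile precipitation with internal standard, LC/MS/MS quantitation against plasma standards 0.1–3000 ng/mL.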

Compound	2 hr plasma level-ng/mL (rat, 10 mg/kg PO, 2 hr)
COc1cc(NC(=O)C(=O)c2c(C)n(Cc3ccc(Cl)cn3)c3cc(F)c(C)cc23)ccn1 [Compound 90, 2-(1-((5-chloropyridin-2-yl)methyl)-6-fluoro-2,5-dimethyl-1H-indol-3-yl)-N-(2-methoxypyridin-4-yl)-2-oxoacetamide]	D (D = greater than 1000 nM)
COc1cc(NC(=O)C(=O)c2c(C)n(Cc3ccc(Cl)cn3)c3cc(Cl)c(C)cc23)ccn1 [Compound 94, 2-(6-chloro-1-((5-chloropyridin-2-yl)methyl)-2,5-dimethyl-1H-indol-3-yl)-N-(2-methoxypyridin-4-yl)-2-oxoacetamide]	D (D = greater than 1000 nM)
COc1cc(NC(=O)C(=O)c2c(C)n(Cc3ccc(F)cn3)c3ccc(C)cc23)ccn1 [Compound 85, 2-(1-((5-fluoropyridin-2-yl)methyl)-2,5-dimethyl-1H-indol-3-yl)-N-(2-methoxypyridin-4-yl)-2-oxoacetamide]	D (D = greater than 1000 nM)
COc1ccc2c(c1)c(C(=O)C(=O)Nc1ccnc(OC)c1)c(C)n2Cc1ccc(C)cn1 [Compound 84, 2-(5-methoxy-2-methyl-1-((5-methylpyridin-2-yl)methyl)-1H-indol-3-yl)-N-(2-methoxypyridin-4-yl)-2-oxoacetamide]	D (D = greater than 1000 nM)
COc1cc(NC(=O)C(=O)c2c(C)n(Cc3ccc(Cl)cc3)c3cc(Cl)c(C)cc23)ccn1 [Compound 93, 2-(6-chloro-1-(4-chlorobenzyl)-2,5-dimethyl-1H-indol-3-yl)-N-(2-methoxypyridin-4-yl)-2-oxoacetamide]	C (C = between 100 nM and 1000 nM)
COc1cc(NC(=O)C(=O)c2c(C)n(Cc3ccc(Cl)cc3)c3cc(F)c(C)cc23)ccn1 [Compound 89, 2-(1-(4-chlorobenzyl)-6-fluoro-2,5-dimethyl-1H-indol-3-yl)-N-(2-methoxypyridin-4-yl)-2-oxoacetamide]	C (C = between 100 nM and 1000 nM)
COc1ccc2c(c1)c(C(=O)C(=O)Nc1ccnc(OC)c1)c(C)n2Cc1ncc(Cl)cc1Cl [Compound 82, 2-(1-((3,5-dichloropyridin-2-yl)methyl)-5-methoxy-2-methyl-1H-indol-3-yl)-N-(2-methoxypyridin-4-yl)-2-oxoacetamide]	D (D = greater than 1000 nM)
COc1ccc2c(c1)c(C(=O)C(=O)Nc1ccnc(OC)c1)c(C)n2Cc1ccc(Cl)nn1 [Compound 86, 2-(1-((6-chloropyridazin-3-yl)methyl)-5-methoxy-2-methyl-1H-indol-3-yl)-N-(2-methoxypyridin-4-yl)-2-oxoacetamide]	D (D = greater than 1000 nM)
COc1ccc2c(c1)c(C(=O)C(=O)Nc1ccnc(OC)c1)c(C)n2Cc1ccc(Cl)cn1 [Compound 79, 2-(1-((5-chloropyridin-2-yl)methyl)-5-methoxy-2-methyl-1H-indol-3-yl)-N-(2-methoxypyridin-4-yl)-2-oxoacetamide]	D (D = greater than 1000 nM)
COc1ccc2c(c1)c(C(=O)C(=O)Nc1ccnc(OC)c1)c(C)n2Cc1ncc(Cl)cc1F [Compound 87, 2-(1-((5-chloro-3-fluoropyridin-2-yl)methyl)-5-methoxy-2-methyl-1H-indol-3-yl)-N-(2-methoxypyridin-4-yl)-2-oxoacetamide]	D (D = greater than 1000 nM)
COc1ccc2c(c1)c(C(=O)C(=O)Nc1ccnc(OC)c1)c(C)n2Cc1ncc(F)cc1F [Compound 81, 2-(1-((3,5-difluoropyridin-2-yl)methyl)-5-methoxy-2-methyl-1H-indol-3-yl)-N-(2-methoxypyridin-4-yl)-2-oxoacetamide]	D (D = greater than 1000 nM)
